Consider 54 compounds from patent publication US12673946B2, “Pyrimidin-4(3H)-one derivatives as TRPV4 antagonists” (RaQualia Pharma Inc., priority 2020, dated 2026).

The target in the assay is T1, human TRPV4 (Homo sapiens, UniProt Q9HBA0).
T1 construct: host or cells: tetracycline-inducible Flp-In T-REx 293 cells
In words: Hypotonicity-induced Ca2+ influx (Fluo-4, FDSS). The assay is classed as cell-based. A digest of the protocol: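 Flp-In T-REx 293 cells with tetracycline-induced human TRPV4, loaded with Fluo-4 for 60 min at 25 °C. Compound added 5 min before hypotonic mannitol/CaCl2 solution. Ca2+ signal recorded for 4.5 min on FDSS.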

Where [1] appears, read: Flp-In T-REx 293 cells expressing human TRPV4, examples listed under heading 'Human IC50<50 nM'.
Where [2] appears, read: Flp-In T-REx 293 cells stably expressing human TRPV4, compounds listed by potency bin (<10 nM Tables 96-1/96-2, <3 nM Table 97).

Molecules are shown by their SMILES. Bounds are passed on as bounds.

T1 sequence (Q9HBA0 whole entry): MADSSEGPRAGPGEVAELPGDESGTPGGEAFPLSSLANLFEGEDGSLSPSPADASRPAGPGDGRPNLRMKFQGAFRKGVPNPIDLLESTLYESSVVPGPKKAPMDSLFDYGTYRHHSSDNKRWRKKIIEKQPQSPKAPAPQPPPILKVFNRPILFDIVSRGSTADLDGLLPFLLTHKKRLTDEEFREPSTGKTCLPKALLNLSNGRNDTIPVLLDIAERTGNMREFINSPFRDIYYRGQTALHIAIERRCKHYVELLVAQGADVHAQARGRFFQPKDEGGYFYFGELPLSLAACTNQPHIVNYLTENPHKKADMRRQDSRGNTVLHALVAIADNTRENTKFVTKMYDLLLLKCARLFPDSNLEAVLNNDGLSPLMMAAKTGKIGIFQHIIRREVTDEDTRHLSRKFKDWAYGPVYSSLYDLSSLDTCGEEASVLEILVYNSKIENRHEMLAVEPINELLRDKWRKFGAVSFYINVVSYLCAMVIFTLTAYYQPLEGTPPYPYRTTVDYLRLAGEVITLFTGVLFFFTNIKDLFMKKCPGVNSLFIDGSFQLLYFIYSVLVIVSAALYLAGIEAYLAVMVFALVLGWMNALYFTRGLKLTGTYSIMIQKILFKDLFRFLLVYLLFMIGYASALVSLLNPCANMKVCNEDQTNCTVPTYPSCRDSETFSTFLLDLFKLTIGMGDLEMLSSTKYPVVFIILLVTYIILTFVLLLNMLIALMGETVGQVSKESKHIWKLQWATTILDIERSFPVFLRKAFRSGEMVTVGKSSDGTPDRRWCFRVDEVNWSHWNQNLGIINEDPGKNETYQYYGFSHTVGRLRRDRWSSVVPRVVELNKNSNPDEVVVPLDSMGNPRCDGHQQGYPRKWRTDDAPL

For orientation: IC50 means the midpoint of a concentration-inhibition curve. Lower therefore signals greater potency in that assay. Under setting [1], `CCOc1ccc(-c2cccc(C(O)C(=O)N3CCc4nc(C5(c6ccccc6)CC5)[nH]c(=O)c4C3)c2)cc1` (centres unmarked) [44-37] displayed an IC50 of less than 50 nM.
Consider `CC(C)Oc1ccc(-c2cccc(C(O)C(=O)N3CCc4nc(C5(c6ccccc6)CC5)[nH]c(=O)c4C3)c2)cc1` (centres unmarked) [44-38], for which the IC50 under setting [1] was less than 50 nM.
Consider `Cc1ccc(F)cc1-c1cccc(C(O)C(=O)N2CCc3nc(C4(c5ccccc5)CC4)[nH]c(=O)c3C2)c1` (centres unmarked) [44-39], for which the IC50 under setting [1] is less than 50 nM.
Still for that read-out and setting: the figure for `O=C(C(O)c1cccc(-c2csc3ccccc23)c1)N1CCc2nc(C3(c4ccccc4)CC3)[nH]c(=O)c2C1` (centres unmarked) [44-40] is less than 50 nM.
As for `O=C(C(O)c1cccc(-c2ccc(C(F)(F)F)nc2)c1)N1CCc2nc(C3(c4ccccc4)CC3)[nH]c(=O)c2C1` (centres unmarked) [44-41], the IC50 under setting [1] is less than 50 nM.
On to `CC(C)(C)c1ccc(-c2cccc(C(O)C(=O)N3CCc4nc(C5(c6ccccc6)CC5)[nH]c(=O)c4C3)c2)cc1` (centres unmarked) [44-42], for which, under setting [1], the IC50 is less than 50 nM.
Still for that read-out and setting: the figure for `O=C(C(O)c1cccc(-c2ccccc2F)c1)N1CCc2nc(C3(c4ccccc4)CC3)[nH]c(=O)c2C1` (centres unmarked) [44-43] is less than 50 nM; for `O=C(C(O)c1cccc(-c2cccc(F)c2F)c1)N1CCc2nc(C3(c4ccccc4)CC3)[nH]c(=O)c2C1` (centres unmarked) [44-44] it is less than 50 nM.
`O=C(C(O)c1cccc(-c2cc(F)cc(F)c2)c1)N1CCc2nc(C3(c4ccccc4)CC3)[nH]c(=O)c2C1` (centres unmarked) [44-45]: the IC50 under setting [1] is less than 50 nM.
Turning to `O=C(C(O)c1cccc(-c2cccc(C(F)(F)F)c2Cl)c1)N1CCc2nc(C3(c4ccccc4)CC3)[nH]c(=O)c2C1` (centres unmarked) [44-46], the IC50 under setting [1] is less than 50 nM.
The same measure, in the same setting: the figure for `O=C(C(O)c1cccc(-c2cccc(F)c2)c1)N1CCc2nc(C3(c4ccccc4)CC3)[nH]c(=O)c2C1` (centres unmarked) [44-47] is less than 50 nM; for `O=C(C(O)c1cccc(-c2cc(F)ccc2F)c1)N1CCc2nc(C3(c4ccccc4)CC3)[nH]c(=O)c2C1` (centres unmarked) [44-48] it is less than 50 nM; for `O=C(C(O)c1cccc(-c2ccc(F)c(F)c2)c1)N1CCc2nc(C3(c4ccccc4)CC3)[nH]c(=O)c2C1` (centres unmarked) [44-49] it is less than 50 nM.
The same measure, in the same setting: the figure for `O=C(C(O)c1cccc(-c2ccc(F)cc2)c1)N1CCc2nc(C3(c4ccccc4)CC3)[nH]c(=O)c2C1` (centres unmarked) [44-50] is less than 50 nM.
Under setting [1], `Cc1cccc(-c2cccc(C(O)C(=O)N3CCc4nc(C5(c6ccccc6)CC5)[nH]c(=O)c4C3)c2)c1` (centres unmarked) [44-51] came in with an IC50 of less than 50 nM.
Still for that read-out and setting: the figure for `O=C(C(O)c1cccc(-c2ccc(F)cc2F)c1)N1CCc2nc(C3(c4ccccc4)CC3)[nH]c(=O)c2C1` (centres unmarked) [44-52] is less than 50 nM; for `COc1cccc(-c2cccc(C(O)C(=O)N3CCc4nc(C5(c6ccccc6)CC5)[nH]c(=O)c4C3)c2)c1` (centres unmarked) [44-53] it is less than 50 nM; for `O=C(C(O)c1cccc(-c2ccccc2C(F)(F)F)c1)N1CCc2nc(C3(c4ccccc4)CC3)[nH]c(=O)c2C1` (centres unmarked) [44-54] it is less than 50 nM.
`O=C(C(O)c1cccc(-c2ccccc2)c1)N1CCc2nc(C3(c4ccccc4)CC3)[nH]c(=O)c2C1` (centres unmarked) [44-55]: the IC50 under setting [1] was less than 50 nM.
The same measure, in the same setting: the figure for `Cc1ccc(-c2cccc(C(O)C(=O)N3CCc4nc(C5(c6ccccc6)CC5)[nH]c(=O)c4C3)c2)cc1` (centres unmarked) [44-56] is less than 50 nM.
Consider `O=C(C(O)c1cccc(-c2ccccc2OC(F)(F)F)c1)N1CCc2nc(C3(c4ccccc4)CC3)[nH]c(=O)c2C1` (centres unmarked) [44-57], for which the IC50 under setting [1] was less than 50 nM.
In turn, `COc1ccc(-c2cccc(C(O)C(=O)N3CCc4nc(C5(c6ccccc6)CC5)[nH]c(=O)c4C3)c2)cc1` (centres unmarked) [44-58] gave an IC50 under setting [1] of less than 50 nM.
Same read-out and setting: the figure for `O=C([C@H](O)c1cccc(-c2cccc(F)c2)c1)N1CCc2nc(C3(c4ccccc4)CC3)[nH]c(=O)c2C1` [44-70] is less than 50 nM.
Compound `O=C([C@H](O)c1cccc(-c2cccc(C(F)(F)F)c2)c1)N1CCc2nc(C3(c4ccccc4)CC3)[nH]c(=O)c2C1` [44-71] registered an IC50 under setting [1] of less than 50 nM and an IC50 under setting [2] of less than 3 nM.
For the compound `O=C([C@H](O)c1cccc(-c2cccc(OC(F)(F)F)c2)c1)N1CCc2nc(C3(c4ccccc4)CC3)[nH]c(=O)c2C1` [44-72], the IC50 is, setting by setting: under setting [1], less than 50 nM; under setting [2], less than 3 nM.
Take `O=C([C@H](O)c1cccc(-c2cccc(Cl)c2)c1)N1CCc2nc(C3(c4ccccc4)CC3)[nH]c(=O)c2C1` [44-73]: the IC50 is, setting by setting: under setting [1], less than 50 nM; under setting [2], less than 10 nM.
`CC(C)(C)c1cccc(-c2cccc([C@@H](O)C(=O)N3CCc4nc(C5(c6ccccc6)CC5)[nH]c(=O)c4C3)c2)c1` [44-74]: the IC50 is, setting by setting: under setting [1], less than 50 nM; under setting [2], less than 3 nM.
On the same counts, the results for `O=C([C@H](O)c1cccc(-c2cc(F)cc(Cl)c2)c1)N1CCc2nc(C3(c4ccccc4)CC3)[nH]c(=O)c2C1` [44-77] are less than 50 nM and less than 10 nM.
On the same counts, the results for `O=C([C@H](O)c1cccc(-c2cccc(C(F)(F)F)n2)c1)N1CCc2nc(C3(c4ccccc4)CC3)[nH]c(=O)c2C1` [44-78] are less than 50 nM and less than 3 nM.
Consider `O=C([C@H](O)c1cccc(-c2ccnc(C(F)(F)F)c2)c1)N1CCc2nc(C3(c4ccccc4)CC3)[nH]c(=O)c2C1` [44-79], for which the IC50 runs as follows: under setting [1], less than 50 nM; under setting [2], less than 3 nM.
Turning to `O=C([C@H](O)c1cccc(-c2cnc3ccccc3c2)c1)N1CCc2nc(C3(c4ccccc4)CC3)[nH]c(=O)c2C1` [44-81], the IC50 runs as follows: under setting [1], less than 50 nM; under setting [2], less than 3 nM.
Take `O=C([C@H](O)c1cccc(-c2ccc(F)c(Cl)c2)c1)N1CCc2nc(C3(c4ccccc4)CC3)[nH]c(=O)c2C1` [44-82]: the IC50 by setting is: under setting [1], less than 50 nM; under setting [2], less than 3 nM.
With `O=C([C@H](O)c1cccc(-c2ccc(OCc3ccccc3)nc2)c1)N1CCc2nc(C3(c4ccccc4)CC3)[nH]c(=O)c2C1` [44-83], the IC50 was less than 50 nM under setting [1] and less than 10 nM under setting [2].
The matching figures for `O=C([C@H](O)c1cccc(-c2cc3ccccc3o2)c1)N1CCc2nc(C3(c4ccccc4)CC3)[nH]c(=O)c2C1` [44-84]: less than 50 nM and less than 3 nM.
On the same counts, the results for `O=C([C@H](O)c1cccc(-c2ccc3c(c2)OC(F)(F)O3)c1)N1CCc2nc(C3(c4ccccc4)CC3)[nH]c(=O)c2C1` [44-85] are less than 50 nM and less than 3 nM.
In the case of `O=C([C@H](O)c1cccc(-c2ccc(Cl)cc2)c1)N1CCc2nc(C3(c4ccccc4)CC3)[nH]c(=O)c2C1` [44-86], the IC50 was less than 50 nM under setting [1] and less than 10 nM under setting [2].
Take `O=C([C@H](O)c1cccc(-c2ccc(OCc3ccccn3)cc2)c1)N1CCc2nc(C3(c4ccccc4)CC3)[nH]c(=O)c2C1` [44-87]: under setting [1], the concentration for half-maximal inhibition (IC50) is less than 50 nM.
Under setting [1], `O=C([C@H](O)c1cccc(-c2ccc3ncccc3c2)c1)N1CCc2nc(C3(c4ccccc4)CC3)[nH]c(=O)c2C1` [44-88] displayed an IC50 of less than 50 nM.
Under setting [1], `O=C([C@H](O)c1cccc(-c2ccc3cnccc3c2)c1)N1CCc2nc(C3(c4ccccc4)CC3)[nH]c(=O)c2C1` [44-89] showed a 50% inhibitory concentration (IC50) of less than 50 nM.
Same read-out and setting: the figure for `O=C([C@H](O)c1cccc(-c2ccc3cccnc3c2)c1)N1CCc2nc(C3(c4ccccc4)CC3)[nH]c(=O)c2C1` [44-90] is less than 50 nM.
Same read-out and setting: the figure for `O=C([C@H](O)c1cccc(-c2cncc(C(F)(F)F)c2)c1)N1CCc2nc(C3(c4ccccc4)CC3)[nH]c(=O)c2C1` [44-92] is less than 50 nM.
For the compound `O=C([C@H](O)c1cccc(-c2cccc(OCc3ccccc3)c2)c1)N1CCc2nc(C3(c4ccccc4)CC3)[nH]c(=O)c2C1` [44-93], the IC50 is, setting by setting: under setting [1], less than 50 nM; under setting [2], less than 10 nM.
On to `Cc1ccc(-c2cccc([C@@H](O)C(=O)N3CCc4nc(C5(c6ccccc6)CC5)[nH]c(=O)c4C3)c2)cc1Cl` [44-94], for which the IC50 is, setting by setting: under setting [1], less than 50 nM; under setting [2], less than 10 nM.
On the same counts, the results for `O=C([C@H](O)c1cccc(-c2cc3ccccc3s2)c1)N1CCc2nc(C3(c4ccccc4)CC3)[nH]c(=O)c2C1` [44-95] are less than 50 nM and less than 3 nM.
The matching figures for `Cc1cc(Cl)cc(-c2cccc([C@@H](O)C(=O)N3CCc4nc(C5(c6ccccc6)CC5)[nH]c(=O)c4C3)c2)c1` [44-96]: less than 50 nM and less than 10 nM.
The matching figures for `O=C([C@H](O)c1cccc(-c2ccc(Cl)c(OC(F)(F)F)c2)c1)N1CCc2nc(C3(c4ccccc4)CC3)[nH]c(=O)c2C1` [44-97]: less than 50 nM and less than 10 nM.
`O=C([C@H](O)c1cccc(-c2cc(Cl)cc(OC(F)(F)F)c2)c1)N1CCc2nc(C3(c4ccccc4)CC3)[nH]c(=O)c2C1` [44-98]: the IC50 was less than 50 nM under setting [1] and less than 3 nM under setting [2].
On the same counts, the results for `O=C([C@H](O)c1cccc(-c2cc(Cl)cc(C(F)(F)F)c2)c1)N1CCc2nc(C3(c4ccccc4)CC3)[nH]c(=O)c2C1` [44-99] are less than 50 nM and less than 10 nM.
On the same counts, the results for `O=C([C@H](O)c1cccc(-c2cc(Cl)cc(Cl)c2)c1)N1CCc2nc(C3(c4ccccc4)CC3)[nH]c(=O)c2C1` [44-100] are less than 50 nM and less than 10 nM.
The matching figures for `O=C([C@H](O)c1cccc(-c2ccc(Cl)c(Cl)c2)c1)N1CCc2nc(C3(c4ccccc4)CC3)[nH]c(=O)c2C1` [44-101]: less than 50 nM and less than 10 nM.
In turn, `O=C([C@H](O)c1cccc(-c2ccc(Cl)c(C(F)(F)F)c2)c1)N1CCc2nc(C3(c4ccccc4)CC3)[nH]c(=O)c2C1` [44-102] yielded an IC50 under setting [1] of less than 50 nM and an IC50 under setting [2] of less than 3 nM.
The matching figures for `CC(C)(C)c1cc(-c2cccc([C@@H](O)C(=O)N3CCc4nc(C5(c6ccccc6)CC5)[nH]c(=O)c4C3)c2)cc(C(C)(C)C)c1` [44-103]: less than 50 nM and less than 10 nM.
Consider `CC(C)Oc1cccc(-c2cccc([C@@H](O)C(=O)N3CCc4nc(C5(c6ccccc6)CC5)[nH]c(=O)c4C3)c2)c1` [44-104], for which the IC50 runs as follows: under setting [1], less than 50 nM; under setting [2], less than 3 nM.
The matching figures for `O=C([C@H](O)c1cccc(-c2cccc(C3CC3)c2)c1)N1CCc2nc(C3(c4ccccc4)CC3)[nH]c(=O)c2C1` [44-105]: less than 50 nM and less than 10 nM.
